Test results as given in patent publication US20210222225A1, “Medium for Disk Diffusion Method to Evaluate Antibiotic Sensitivity” (priority 2018, published 2021).

Assays:
[1] = test system: KPN K3070_S; assay: Colistin disk diffusion, guanidine hydrochloride medium, K3070_S; assay type: cell-based, Klebsiella pnemoniae; settings: 30% agar
Method: (§1) A concentration of agar particles (BD Diagnostic, Sparks, Md., USA) in Mueller-Hinton broth medium (BD Diagnostic) was adjusted to 5.1 g/L, which is 30% of 17 g/L, and guanidine hydrochloride was added to a concentration of 500 μg/ml, 50 μg/ml, or 5 μg/ml. Then, solidification was performed. On a surface of each medium thus prepared was evenly inoculated each of colistin-susceptible (S) or -resistant (R) Acinetobacter baumannii (ABA) strain, colistin-susceptible (S) or -resistant (R) Klebsiella pnemoniae (KPN) strain, and colistin-susceptible (S) or -resistant (R) Pseudomonas aeruginosa (PAE) strain, and a colistin disk was placed thereon. Then, pictures of a growth inhibition zone, which had been formed clear, around the disk were taken for each strain, and the results are illustrated in FIGS. 8 to 10.

[2] = test system: colistin-susceptible strains; assay: Colistin disk diffusion, colistin-susceptible strains as a group (average, differences); assay type: cell-based; settings: for Average, diameter (mm) of colistin inhibition zone, colistin-susceptible strains / Difference (S vs ACB-R), diameter (mm) of colistin inhibition zone / Difference (S vs mcr-1), diameter (mm) of colistin inhibition zone: protamine 100 μg/ml
Method: To each MHA thus modified was added protamine (Sigma-Aldrich, St Louis, Mo., USA) at a concentration of 100 μg/ml, and solidification was performed. Then, on a surface of the medium was evenly inoculated each of colistin-susceptible (S) or -resistant (R) Acinetobacter calcoaceticus-baumannii complex (ACB) strain, Pseudomonas aeruginosa ATCC27853 strain, Escherichia coli ATCC25922 strain, and mcr-1-harboring Enterobacter aerogenes strain, and a colistin disk was placed thereon. Subsequently, a diameter of a growth inhibition zone (colistin inhibition zone), which had been formed clear by diffusion of colistin to the agar around the colistin disk, was measured.
(§2) As in Example 1, a concentration of agar particles (BD Diagnostic, Sparks, Md., USA) in Mueller-Hinton broth medium (BD Diagnostic) was adjusted to 5.1 g/L, which is 30% of 17 g/L, and protamine (Sigma-Aldrich, St Louis, Mo., USA) was added thereto at a concentration of 150 μg/ml or 100 μg/ml. Then, solidification was performed. To compare effects depending on concentrations of agar and protamine, Muller-Hinton agar medium (BD Diagnostic) containing agar at a concentration of 17 g/L and medium obtained by adding, to the Muller-Hinton agar medium, protamine at a concentration of 100 μg/ml were prepared as controls. On a surface of each medium thus prepared was evenly inoculated each of colistin-susceptible (S) or -resistant (R) Acinetobacter calcoaceticus-baumannii complex (ACB) strain, Pseudomonas aeruginosa ATCC27853 strain, and mcr-1-harboring Enterobacter aerogenes strain, and a colistin disk was placed thereon. Then, it was determined whether each strain was grown, and a diameter of a growth inhibition zone, which had been formed clear around the disk, was measured. The results are illustrated in FIG. 1.
The following four bacterial strains were used to determine conditions for agar: colistin-susceptible (S) or -resistant (R) Acinetobacter calcoaceticus-baumannii complex (ACB) strain (N=2), Pseudomonas aeruginosa ATCC27853 strain, and mcr-1-harboring Enterobacter aerogenes strain. A concentration of agar particles (BD Diagnostic, Sparks, Md., USA) in Mueller-Hinton broth medium (BD Diagnostic) was adjusted to 17 g/L or 5.1 g/L that is 30% of 17 g/L. To each modified MHA was added protamine (Sigma-Aldrich, St Louis, Mo., USA) at a concentration of 100 μg/ml.
(§3) On a surface of each medium thus prepared was evenly inoculated each of colistin-susceptible (S) or -resistant (R) Acinetobacter calcoaceticus-baumannii complex (ACB) strain, Pseudomonas aeruginosa ATCC27853 strain, and mcr-1-harboring Enterobacter aerogenes strain, and a colistin disk was placed thereon. Then, it was determined whether each strain was grown, and a diameter of a colistin inhibition zone, which had been formed clear around the disk, was measured. The results are illustrated in FIGS. 2A and 2B. Pictures of an inhibition zone around the disk were taken for each strain, and the results are illustrated in FIGS. 3A, 3B, 4A, 4B, 5A, 5B, 6A and 6B.

[3] = test system: ABA A5_R; assay: Colistin disk diffusion, guanidine hydrochloride medium, A5_R; assay type: cell-based, Acinetobacter baumannii; settings: 30% agar
Method: as §1

[4] = test system: ABA A532_R; assay: Colistin disk diffusion, guanidine hydrochloride medium, A532_R; assay type: cell-based, Acinetobacter baumannii; settings: 30% agar
Method: as §1

[5] = test system: ABA A17_S; assay: Colistin disk diffusion, guanidine hydrochloride medium, A17_S; assay type: cell-based, Acinetobacter baumannii; settings: 30% agar
Method: as §1

[6] = test system: colistin-resistant strains; assay: Colistin disk diffusion, colistin-resistant strains as a group; assay type: cell-based
Method: as §2, with “On a surface of each medium thus prepared was evenly inoculated each of colistin-susceptible (S) or -resistant (R) Acinetobacter calcoaceticus-baumannii complex (ACB) strain, Pseudomonas aeruginosa ATCC27853 strain, and mcr-1-harboring Enterobacter aerogenes strain, and a colistin disk was placed thereon.” left out, “The results are illustrated in FIG. 1.” left out
as §3, with “The results are illustrated in FIGS. 2A and 2B. Pictures of an inhibition zone around the disk were taken for each strain, and the results are illustrated in FIGS. 3A, 3B, 4A, 4B, 5A, 5B, 6A and 6B.” left out

[7] = guanidine hydrochloride 5 μg/ml
[8] = guanidine hydrochloride 50 μg/ml
[9] = guanidine hydrochloride 500 μg/ml
[10] = agar 5.1 g/L (30%) compared with 17 g/L, FIG. 1
[11] = agar 5.1 g/L and protamine 100 μg/ml compared with agar 17 g/L, FIGS. 2A to 6B

colistin
Disk diffusion (mm) [1, 7]: 17 mm
Disk diffusion (mm) [1, 8]: 16 mm
Disk diffusion (mm) [1, 9]: 17 mm
Average, diameter (mm) of colistin inhibition zone, colistin-susceptible strains ([2]; 30% agar): 16 mm
Difference (S vs ACB-R), diameter (mm) of colistin inhibition zone ([2]; 30% agar): 5 mm
Difference (S vs mcr-1), diameter (mm) of colistin inhibition zone ([2]; 30% agar): 5 mm
Average, diameter (mm) of colistin inhibition zone, colistin-susceptible strains ([2]; 40% agar): 15 mm
Difference (S vs ACB-R), diameter (mm) of colistin inhibition zone ([2]; 40% agar): 4 mm
Difference (S vs mcr-1), diameter (mm) of colistin inhibition zone ([2]; 40% agar): 5 mm
Average, diameter (mm) of colistin inhibition zone, colistin-susceptible strains ([2]; 50% agar): 14 mm
Difference (S vs ACB-R), diameter (mm) of colistin inhibition zone ([2]; 50% agar): 4 mm
Difference (S vs mcr-1), diameter (mm) of colistin inhibition zone ([2]; 50% agar): 3 mm
Average, diameter (mm) of colistin inhibition zone, colistin-susceptible strains ([2]; 60% agar): 14 mm
Difference (S vs ACB-R), diameter (mm) of colistin inhibition zone ([2]; 60% agar): 1 mm
Difference (S vs mcr-1), diameter (mm) of colistin inhibition zone ([2]; 60% agar): 4 mm
Average, diameter (mm) of colistin inhibition zone, colistin-susceptible strains ([2]; 70% agar): 14 mm
Difference (S vs ACB-R), diameter (mm) of colistin inhibition zone ([2]; 70% agar): 3 mm
Difference (S vs mcr-1), diameter (mm) of colistin inhibition zone ([2]; 70% agar): 4 mm
Average, diameter (mm) of colistin inhibition zone, colistin-susceptible strains ([2]; 80% agar): 13 mm
Difference (S vs ACB-R), diameter (mm) of colistin inhibition zone ([2]; 80% agar): 1 mm
Difference (S vs mcr-1), diameter (mm) of colistin inhibition zone ([2]; 80% agar): 4 mm
Average, diameter (mm) of colistin inhibition zone, colistin-susceptible strains ([2]; 90% agar): 13 mm
Difference (S vs ACB-R), diameter (mm) of colistin inhibition zone ([2]; 90% agar): 1 mm
Difference (S vs mcr-1), diameter (mm) of colistin inhibition zone ([2]; 90% agar): 3 mm
Average, diameter (mm) of colistin inhibition zone, colistin-susceptible strains ([2]; 100% agar): 13 mm
Difference (S vs ACB-R), diameter (mm) of colistin inhibition zone ([2]; 100% agar): 2 mm
Difference (S vs mcr-1), diameter (mm) of colistin inhibition zone ([2]; 100% agar): 3 mm
size of a growth inhibition zone in the colistin-susceptible strains [2, 10]: increased
diameter of the growth inhibition zone in the colistin-susceptible strains [2, 11]: remarkably increased
Disk diffusion (mm) [3, 7]: 10 mm
Disk diffusion (mm) [3, 8]: 10 mm
Disk diffusion (mm) [3, 9]: 10 mm
Disk diffusion (mm) [4, 7]: 9 mm
Disk diffusion (mm) [4, 8]: 9 mm
Disk diffusion (mm) [4, 9]: 9 mm
Disk diffusion (mm) [5, 7]: 15 mm
Disk diffusion (mm) [5, 8]: 15 mm
Disk diffusion (mm) [5, 9]: 15 mm
size of a growth inhibition zone in the colistin-resistant strains [6, 10]: maintained
size of the growth inhibition zone in the colistin-resistant strains [6, 11]: no changes
